Test [1] has as its target T1, α1S205Cβ2γ2 GABAA receptor (Rattus norvegicus, UniProt P18508+P62813, S232C). The experiment in a line: Covalent reaction of 3-NCS at the binding level (residual radioligand binding, HEK293 membranes). The settings on record: 3-NCS 30 min on ice, washed; residual [^3H]Ro15–1788 binding. On the procedure:
(§1) cDNAs coding for the αx (x = 1, 2, 3, 6), β2, and γ2S subunits DNA (20 µg : 20 µg : 20 µg) per 9 cm diameter dish were transfected in human embryonic kidney (HEK) 293 cells (American Type of Culture Collection, MD, USA, CRL 1573) using the calcium phosphate precipitation technique. For α5 containing receptors β2 was replaced by β1. […] Culturing of cells and membrane preparation were done as described before.
(§2) As detailed in previous work, [30], [33] this procedure included three steps: incubation of membranes expressing recombinant wild type or mutant receptors with the reactive agent followed by extensive washing of the membranes in order to remove non-reacted compound and a radioactive ligand binding assay to determine residual binding. No covalent reaction would result in 100% residual binding, and 100% covalent reaction would result in 0% residual binding.
(§3) Briefly, the membranes were re-suspended in phosphate buffer (100 mM KCl, 10 mM KH2PO4, 0.1 mM EDTA, pH 7.4) using a Glass/Teflon homogenizer. 0.1–1.0 mg/mL of protein were incubated in a total volume of 360 µL with either 10 µM (determination of degree of covalent reaction) or several concentrations of 3-NCS for 30 min on ice. Membranes were collected with rapid filtration on a round 7 mm diameter glass fiber filter (GF/C; Whatman) that was placed on a round 24 mm diameter glass fiber filter (GF/C; Whatman), both pre-washed with phosphate buffer. The reaction of 3-NCS with the receptor was stopped by washing of the filters six times with 5 mL phosphate buffer, each. The small filters with the deposited membranes were incubated in 0.12 mL phosphate buffer containing 5 nM [^3H]Ro15–1788. After 30 min the 7 mm filter was placed on a 24 mm filter and washed six times with 5 mL phosphate buffer each. Radioactivity was determined by liquid scintillation counting. Non-specific binding was determined in the presence of 100 µM Ro 15–1788. In control experiments, washing efficiency was estimated by placing radioactivity on the small filter. More than 99.95% of the radioactivity was removed (not shown).
(§4) Concentration response curves for 3-NCS were fitted with the equation C(c) = Cmax/(1+(EC50/c)), where c is the concentration of 3-NCS, EC50 the concentration of 3-NCS where half maximal covalent reaction was observed, Cmax is the maximal extent of the covalent reaction and C the measured extent of the covalent reaction.

Test [2] deals with α1T206Cβ2γ2 GABAA receptor (Rattus norvegicus, UniProt P18508+P62813, T233C). The description is as above. The settings on record: 3-NCS 30 min on ice, washed; residual [^3H]Ro15–1788 binding. As to the method:
as §1, §2, §3, §4

In test [3] the target is α2S204Cβ2γ2 GABAA receptor (Rattus norvegicus, UniProt P18508+P23576, S232C). The test is described as above. On the procedure: as §1, §2, §3, §4
α2S204Cβ2γ2 GABAA receptor, sequence (P23576 29-451 S232C): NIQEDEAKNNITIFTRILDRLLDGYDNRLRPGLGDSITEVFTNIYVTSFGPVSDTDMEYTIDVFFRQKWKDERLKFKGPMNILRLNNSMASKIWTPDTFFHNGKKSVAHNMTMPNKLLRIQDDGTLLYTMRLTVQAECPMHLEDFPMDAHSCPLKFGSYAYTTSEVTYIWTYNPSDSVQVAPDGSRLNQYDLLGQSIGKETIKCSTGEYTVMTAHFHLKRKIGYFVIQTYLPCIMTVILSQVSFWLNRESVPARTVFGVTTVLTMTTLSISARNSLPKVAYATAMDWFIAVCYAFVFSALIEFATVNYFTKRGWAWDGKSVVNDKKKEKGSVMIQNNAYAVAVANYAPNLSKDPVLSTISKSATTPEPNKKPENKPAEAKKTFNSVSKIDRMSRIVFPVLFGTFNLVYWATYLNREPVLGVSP
α2S204Cβ2γ2 GABAA receptor, sequence (P18508 39-466): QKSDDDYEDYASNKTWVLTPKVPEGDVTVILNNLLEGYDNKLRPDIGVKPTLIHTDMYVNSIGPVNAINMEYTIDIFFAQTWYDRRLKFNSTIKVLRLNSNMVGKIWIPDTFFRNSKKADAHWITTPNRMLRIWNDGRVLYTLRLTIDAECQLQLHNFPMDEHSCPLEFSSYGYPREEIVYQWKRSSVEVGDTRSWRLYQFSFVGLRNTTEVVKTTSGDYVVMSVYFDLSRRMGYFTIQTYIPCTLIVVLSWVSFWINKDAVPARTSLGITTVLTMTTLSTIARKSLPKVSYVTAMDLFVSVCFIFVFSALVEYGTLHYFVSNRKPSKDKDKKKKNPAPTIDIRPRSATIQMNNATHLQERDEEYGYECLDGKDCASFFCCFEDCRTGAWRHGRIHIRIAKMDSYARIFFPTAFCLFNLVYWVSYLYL
α2S204Cβ2γ2 GABAA receptor, sequence (P63138 26-474 partner): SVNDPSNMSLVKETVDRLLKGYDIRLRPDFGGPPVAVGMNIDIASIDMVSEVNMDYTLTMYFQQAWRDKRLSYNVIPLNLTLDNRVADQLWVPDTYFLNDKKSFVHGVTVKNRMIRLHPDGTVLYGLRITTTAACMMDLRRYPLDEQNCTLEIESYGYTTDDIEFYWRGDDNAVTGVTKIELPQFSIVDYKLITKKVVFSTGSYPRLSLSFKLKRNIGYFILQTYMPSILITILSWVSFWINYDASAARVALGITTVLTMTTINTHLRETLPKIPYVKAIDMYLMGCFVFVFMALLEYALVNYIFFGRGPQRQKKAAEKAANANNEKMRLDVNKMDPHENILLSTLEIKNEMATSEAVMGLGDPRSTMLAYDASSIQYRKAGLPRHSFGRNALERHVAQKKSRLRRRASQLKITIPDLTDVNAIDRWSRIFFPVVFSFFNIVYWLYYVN
The target in test [4] is α2T206Cβ2γ2 GABAA receptor (Rattus norvegicus, UniProt P18508+P23576, T234C). The description is as above. On the procedure: as §1, §2, §3, §4
α2T206Cβ2γ2 GABAA receptor, sequence (P23576 29-451 T234C): as the sequence (P23576 29-451 S232C) above, with C204S, T206C counted along it
α2T206Cβ2γ2 GABAA receptor, sequence (P18508 39-466): as the sequence (P18508 39-466) above
α2T206Cβ2γ2 GABAA receptor, sequence (P63138 26-474 partner): as the sequence (P63138 26-474 partner) above
In test [5] the target is α5S209Cβ1γ2 GABAA receptor (Rattus norvegicus, UniProt P18508+P19969, S240C). The description is as above. As to the method:
as §1, §2, §3, §4

Test [6] addresses α5T210Cβ1γ2 GABAA receptor (Rattus norvegicus, UniProt P18508+P19969, T241C). Described as above. On the procedure:
as §1, §2, §3, §4

The subject of test [7] is α1S204Cβ2γ2 GABAA receptor. Put plainly: Covalent reaction at the functional level (two-electrode voltage clamp, Xenopus oocytes). Type of test: cell-based. Conditions: after 10 µM 3-NCS and removal of non-covalently reacted 3-NCS. As to the method:
(§5) Capped cRNAs were synthesized (Ambion, Austin, TX, USA) from the linearized plasmids with a cytomegalovirus promotor (pCMVvectors) containing the different subunits, respectively. A poly-A tail of about 400 residues was added to each transcript using yeast poly- A polymerase (United States Biologicals, Cleveland, OH, USA). The concentration of the cRNA was quantified on a formaldehyde gel using Radiant Red stain (Bio-Rad) for visualization of the RNA. Known concentrations of RNA ladder (Invitrogen) were loaded as standard on the same gel. cRNAs were precipitated in ethanol/isoamylalcohol 19∶ 1, the dried pellet dissolved in water and stored at −80°C. cRNA mixtures were prepared from these stock solutions and stored at −80°C. Xenopus laevis oocytes were prepared, injected and defolliculated as described previously, [39]. They were injected with 50 nL of the cRNA solution containing wild type or mutated α1 or α2, α3, α5, α6 and wild type β2 and γ2 subunits at a concentration of 10 nM : 10 nM : 50 nM [40] and then incubated in modified Barth’s solution at +18°C for at least 24 h before the measurements.
(§6) Currents were measured using a modified two-electrode voltage clamp amplifier Oocyte clamp OC-725 (Warner Instruments) in combination with a XY-recorder (90% response time 0.1s) or digitized at 100 Hz using a PowerLab 2/20 (AD Instruments) using the computer programs Chart (ADInstruments GmbH, Spechbach, Germany). Tests with a model oocyte were performed to ensure linearity in the larger current range. The response was linear up to 15 µA.
(§7) Electrophysiological experiments were performed by using the two-electrode voltage clamp method at a holding potential of −80 mV. The perfusion medium contained 90 mM NaCl, 1 mM KCl, 1 mM MgCl2, 1 mM CaCl2, and 5 mM Na-HEPES (pH 7.4) and was applied by gravity flow 6 ml/min. The perfusion medium was applied through a glass capillary with an inner diameter of 1.35 mm, the mouth of which was placed about 0.4 mm from the surface of the oocyte. Allosteric modulation via the benzodiazepine site was measured at a GABA concentration eliciting 2–5% of the maximal GABA current amplitude. GABA was applied for 20 s alone or in combination with allosteric compound. 6 ml of the covalent reacting compound was applied to the oocyte and incubated for 3 min while stopping the flow of the perfusion medium. Modulation of GABA currents was expressed as (I(modulator + GABA)/IGABA –1) * 100%. The perfusion system was cleaned between drug applications by washing with DMSO to avoid contamination.
For orientation: Two-electrode voltage clamp holds a large cell at a set potential and records current.

The subject of test [8] is α3S230Cβ2γ2 GABAA receptor. Described as above. Type of test: cell-based. The settings on record: after 10 µM 3-NCS and removal of non-covalently reacted 3-NCS. On the procedure:
as §5, §6, §7

Test [9] has as its system α5T208Cβ2γ2 GABAA receptor. The test is described as above. Type of test: cell-based. Conditions: after 10 µM 3-NCS and removal of non-covalently reacted 3-NCS. As to the method:
as §5, §6, §7

The test system of test [10] is α6S203Cβ2γ2 GABAA receptor. The description is as above. In kind it is cell-based. Conditions: after 10 µM 3-NCS and removal of non-covalently reacted 3-NCS. On the procedure:
as §5, §6, §7

For test [11], the target named is T1, α1S205Cβ2γ2 GABAA receptor. Also on record: method as in PMID 19804380. The settings on record: 10 µM 3-NCS; cited from earlier work.
The mark [12] stands for this setting: 3-NCS 30 min on ice, washed, residual [^3H]Ro15–1788 binding.
Setting [13] is: 0.5 h, 10 µM 3-NCS, mutation homologous to α1T206, n = 3, read-out: Extent of covalent reaction (100% minus % residual binding).

Each structure is given as a SMILES string.

α5T210Cβ1γ2 GABAA receptor, sequence (P19969 26-464 T241C): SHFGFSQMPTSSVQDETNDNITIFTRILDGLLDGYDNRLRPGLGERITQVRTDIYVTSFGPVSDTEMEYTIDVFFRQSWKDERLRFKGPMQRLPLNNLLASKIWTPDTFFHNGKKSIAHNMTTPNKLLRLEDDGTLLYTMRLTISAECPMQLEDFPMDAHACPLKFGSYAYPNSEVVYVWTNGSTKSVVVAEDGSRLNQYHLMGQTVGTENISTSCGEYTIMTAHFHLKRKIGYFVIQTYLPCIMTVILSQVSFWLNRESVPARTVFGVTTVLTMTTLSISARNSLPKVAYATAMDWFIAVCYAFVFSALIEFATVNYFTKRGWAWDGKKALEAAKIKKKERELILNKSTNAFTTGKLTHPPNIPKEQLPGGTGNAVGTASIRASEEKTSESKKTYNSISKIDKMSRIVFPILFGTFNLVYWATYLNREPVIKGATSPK
α5T210Cβ1γ2 GABAA receptor, sequence (P18508 39-466): as the sequence (P18508 39-466) above
α5T210Cβ1γ2 GABAA receptor, sequence (P15431 26-474 partner): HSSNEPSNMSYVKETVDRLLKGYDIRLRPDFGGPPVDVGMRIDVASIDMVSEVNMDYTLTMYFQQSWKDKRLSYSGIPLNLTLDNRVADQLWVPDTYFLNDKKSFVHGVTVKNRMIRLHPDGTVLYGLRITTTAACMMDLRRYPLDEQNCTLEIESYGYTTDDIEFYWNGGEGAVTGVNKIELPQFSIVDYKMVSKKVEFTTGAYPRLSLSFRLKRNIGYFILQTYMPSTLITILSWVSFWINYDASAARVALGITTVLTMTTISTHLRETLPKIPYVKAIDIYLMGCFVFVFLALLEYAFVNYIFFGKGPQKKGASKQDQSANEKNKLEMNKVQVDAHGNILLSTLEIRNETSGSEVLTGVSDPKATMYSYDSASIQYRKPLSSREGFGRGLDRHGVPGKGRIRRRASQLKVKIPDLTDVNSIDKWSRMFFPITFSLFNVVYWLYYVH
T1 sequence (P62813 28-455 S232C): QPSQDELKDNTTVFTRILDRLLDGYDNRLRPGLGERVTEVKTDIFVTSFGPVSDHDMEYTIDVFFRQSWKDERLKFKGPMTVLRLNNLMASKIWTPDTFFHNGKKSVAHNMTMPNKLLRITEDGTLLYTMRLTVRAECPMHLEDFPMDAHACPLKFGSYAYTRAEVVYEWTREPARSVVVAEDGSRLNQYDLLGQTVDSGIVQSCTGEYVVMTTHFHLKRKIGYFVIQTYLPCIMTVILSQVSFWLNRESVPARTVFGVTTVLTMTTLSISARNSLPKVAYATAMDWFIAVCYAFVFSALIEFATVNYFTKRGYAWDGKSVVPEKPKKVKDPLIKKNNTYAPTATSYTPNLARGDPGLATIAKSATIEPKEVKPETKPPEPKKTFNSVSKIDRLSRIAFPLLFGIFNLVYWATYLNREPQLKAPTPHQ
T1 sequence (P18508 39-466): as the sequence (P18508 39-466) above
T1 sequence (P63138 26-474 partner): as the sequence (P63138 26-474 partner) above
α5S209Cβ1γ2 GABAA receptor, sequence (P19969 26-464 S240C): as the sequence (P19969 26-464 T241C) above, with S215C, C216T counted along it
α5S209Cβ1γ2 GABAA receptor, sequence (P18508 39-466, stated change not applied): as the sequence (P18508 39-466) above
α5S209Cβ1γ2 GABAA receptor, sequence (P15431 26-474 partner): as the sequence (P15431 26-474 partner) above
α1T206Cβ2γ2 GABAA receptor, sequence (P62813 28-455 T233C): as the sequence (P62813 28-455 S232C) above, with C205S, T206C counted along it
α1T206Cβ2γ2 GABAA receptor, sequence (P18508 39-466): as the sequence (P18508 39-466) above
α1T206Cβ2γ2 GABAA receptor, sequence (P63138 26-474 partner): as the sequence (P63138 26-474 partner) above

`CN1C(=O)C(N=C=S)N=C(c2ccccc2)c2cc([N+](=O)[O-])ccc21` (stereo not drawn) [3-NCS]: the EC50 was determined as 630 ± 180 nM in test [1]; 82 ± 28 nM in [2]; 3200 ± 2300 nM in test [3] (setting [12]); 190 ± 56 nM in [4] (setting [12]); 4100 ± 2200 nM in test [5] (setting [12]); 450 ± 150 nM in [6] (setting [12]). Moreover, the inhibition at 10 µM turned out to be 52% in test [3] (0.5 h, 10 µM 3-NCS, mutation homologous to α1S204, n = 3, read-out: Extent of covalent reaction (100% minus % residual binding)); 54% in test [4] (setting [13]); 54% in [5] (0.5 h, 10 µM 3-NCS, mutation homologous to α1S205, n = 3, read-out: Extent of covalent reaction (100% minus % residual binding)); 73% in test [6] (setting [13]). Also, the “% allosteric modulation, 3-NCS” value in [7] amounted to 4±4%; in test [8], 15±11%; in test [9] it was 23±18%; in [10] it was 0±2%. For the same compound, the “Covalent reaction with 3-NCS (in words)” value in test [11] is given as “resulted in covalent reaction”.

Usually EC50 stands for the midpoint of the concentration-response curve.
